Results: ChEMBL document CHEMBL3639375, “Œ=-lactamase inhibitors” (2013)

Key:
Beta-lactamase [1] = biological target: Beta-lactamase (Pseudomonas aeruginosa, UniProt Q8RL90); test: (§1) Spectrophotometric Assay: Enzyme activities were measured in the presence of the test inhibitor in spectrophotometric assay.
Beta-lactamase [2] = biological target: Beta-lactamase (Klebsiella pneumoniae, UniProt Q93LQ9); test: as §1
Beta-lactamase (Klebsiella pneumoniae, UniProt Q93LQ9), sequence (Q93LQ9 whole entry): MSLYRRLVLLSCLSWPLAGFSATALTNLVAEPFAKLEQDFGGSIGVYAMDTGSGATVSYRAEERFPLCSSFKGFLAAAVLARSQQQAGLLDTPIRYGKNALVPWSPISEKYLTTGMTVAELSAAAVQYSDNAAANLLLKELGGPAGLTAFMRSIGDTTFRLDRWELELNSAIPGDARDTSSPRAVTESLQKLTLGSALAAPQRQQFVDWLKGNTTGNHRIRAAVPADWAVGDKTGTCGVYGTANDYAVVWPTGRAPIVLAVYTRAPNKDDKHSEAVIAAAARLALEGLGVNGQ

Beta-lactamase (Pseudomonas aeruginosa, UniProt Q8RL90), sequence (Q8RL90 whole entry): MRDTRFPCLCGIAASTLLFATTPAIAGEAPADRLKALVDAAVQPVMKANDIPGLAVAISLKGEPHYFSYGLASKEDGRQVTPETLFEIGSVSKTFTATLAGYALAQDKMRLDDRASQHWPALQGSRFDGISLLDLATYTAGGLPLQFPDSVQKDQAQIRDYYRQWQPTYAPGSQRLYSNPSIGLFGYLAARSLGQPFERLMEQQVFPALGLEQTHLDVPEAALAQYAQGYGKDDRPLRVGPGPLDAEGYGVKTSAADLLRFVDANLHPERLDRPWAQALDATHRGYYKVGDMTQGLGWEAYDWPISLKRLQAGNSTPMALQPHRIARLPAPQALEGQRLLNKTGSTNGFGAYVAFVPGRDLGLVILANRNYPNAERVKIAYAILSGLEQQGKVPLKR

## O=C(Nc1ccncc1)[C@@H]1CCC2CN1C(=O)N2OS(=O)(=O)O (stereo partly drawn)
Beta-lactamase [1]
  IC50: 0.006 µM

## O=C(Nc1ccc2c(c1)CCNC2)[C@@H]1CCC2CN1C(=O)N2OS(=O)(=O)O (stereo partly drawn)
Beta-lactamase [2]
  IC50: 0.019 µM

## O=C(NC1CCCNCC1)[C@@H]1CCC2CN1C(=O)N2OS(=O)(=O)O (stereo partly drawn)
Beta-lactamase [1]
  IC50: 0.069 µM
